24 molecules from patent EP4644375A1, “SUBSTITUTED HYDROQUINOLINES FOR THE TREATMENT OF GLIOBLASTOMA MULTIFORME” (Molius Saglik Teknolojileri Anonim Sirketi, priority 2024, dated 2025) can be followed below.

Test [1] deals with U138-MG human glioma cell. The test can be described thus: Cell proliferation analysis (MTT). Type of test: cell-based. Conditions: 10 µM, two days, MTT; for activity at 10 µM / inhibition at 10 µM: Homo sapiens, 48 h. The protocol:
(§1) U87-MG and U138-MG human glioma cell, were incubated with 10% fetal bovine serum (FBS) (Gibco, 10500-064), 1% L-glutamine (Gibco, 25030-024), in a humidified incubator with 5% CO2 at 37 °C. The cells were contained in DMEM High Glucose (Gibco, 41966-029) supplemented with 1% penicillin-streptomycin (P/S) (Gibco 15140-122) solution. The cytotoxic effects of the target compounds on U87-MG and U138-MG cell lines were assessed using the MTT (Thiazolyl Blue Tetrazolium Bromide) method. 7×10^3 cells were seeded into a 96-well plate in 100 µl DMEM High Glucose 10% FBS and 1% P/S. 24 hours after cell incubation, each target compound was added at a dose of 10 µM and the drug treatment was carried out for two days. After the incubation period, 10 µL of MTT solution was added to each well (5 mg/ml in PBS). After 2 hours, MTT solutions were removed from the wells. Then, 100 µl DMSO was added, and mixed to dissolve the formazan crystals. Cell proliferation was analysed by measuring the absorbance of dissolved formazan at a wavelength of 570 nm.
(§2) IC50 values were determined using the same method as above wherein the cells were treated with the target compounds at different doses.

In test [2] the test system is U87-MG human glioma cell. Nature of the test: Cell proliferation analysis (MTT). Conditions: 10 µM, two days, MTT; for activity at 10 µM / inhibition at 10 µM: Homo sapiens, U-87 MG, 48 h. Format: cell-based. The procedure:
as §1, §2

On to `CC(C)(C)c1ccc(COc2ccc3c(c2)CCC(=O)N3)cc1` [TR-G030, 6-((4-(tert-butyl)benzyl)oxy)-3,4-dihydroquinolin-2(1H)-one], for which, in test [1], the activity at 10 µM was 63% and the inhibition (as a rule, the drop in the measured response relative to a control, in per cent) at 10 µM was 38%. In test [2], this molecule showed an activity at 10 µM of 53% and an inhibition at 10 µM of 47%.

With `O=C1CCc2cc(OCCCCCCOC3CCCCO3)ccc2N1` (stereo not drawn) [TR-G031, 6-((6-((tetrahydro-2H-pyran-2-yl)oxy)hexyl)oxy)-3,4-dihydroquinolin-2(1H)-one], the results for the activity at 10 µM in test [1] and in test [2] were 80% and 72%, respectively. Besides, the inhibition at 10 µM in test [1] amounted to 20%; in test [2] it was 28%.

In the case of `CCOC(=O)Cn1cc(COc2ccc3c(c2)CCC(=O)N3)nn1` [TR-G033, Ethyl 2-(4-(((2-oxo-1,2,3,4-tetrahydroquinolin-6-yl)oxy)methyl)-1H-1,2,3-triazol-1-yl)acetate], in test [1], the activity at 10 µM amounted to 71% and the inhibition at 10 µM worked out at 29%. In addition, in test [2], the activity at 10 µM worked out at 82% and 10 µM produced 19% inhibition.

With `O=C(COc1ccc2c(c1)CCC(=O)N2)N/N=C/c1ccccc1` [TR-G035, (E)-N'-benzylidene-2-((2-oxo-1,2,3,4-tetrahydroquinolin-6-yl)oxy)acetohydrazide], in test [1], the activity at 10 µM came to 74% and testing at 10 µM gave an inhibition of 26%. For the same molecule, in test [2], the activity at 10 µM amounted to 86% and the inhibition at 10 µM was 14%.

With `O=C1CCc2cc(OC(=O)c3cc(C(F)(F)F)ccc3F)ccc2N1` [TR-G036, 2-oxo-1,2,3,4-tetrahydroquinolin-6-yl 2fluoro-5-(trifluoromethyl)benzoate], the activity at 10 µM is 81% in test [1] and 68% in test [2]. Besides, the inhibition at 10 µM came to 19% in test [1] and 32% in test [2].

In test [1], `CCN(C)C(=O)Oc1ccc2c(c1)CCC(=O)N2` [TR-G037, 2-oxo-1,2,3,4-tetrahydroquinolin-6-yl ethyl(methyl)carbamate] returned an activity at 10 µM of 65% and an inhibition at 10 µM of 35%. Moreover, in test [2], the activity at 10 µM came to 91% and at 10 µM the inhibition was 9%.

Turning to `O=C(COc1ccc2c(c1)CCC(=O)N2)N/N=C1\C(=O)Nc2ccccc21` [TR-G038, (Z)-2-((2-oxo-1,2,3,4-tetrahydroquinolin-6-yl)oxy)-N'-(2-oxoindolin-3-ylidene)acetohydrazide], the activity at 10 µM is 95% in test [1] and 71% in test [2]. Besides, the inhibition at 10 µM in test [1] was determined as 5%; in test [2] it was 30%.

In test [1], `C=CC(=O)Oc1ccc2c(c1)CCC(=O)N2` [TR-G039, 2-oxo-1,2,3,4-tetrahydroquinolin-6-yl acrylate] came in with an activity at 10 µM of 75% and an inhibition at 10 µM of 25%. In test [2], this molecule returned an activity at 10 µM of 59% and an inhibition at 10 µM of 41%.

Consider `C=CC(=O)N(NC(=O)COc1ccc2c(c1)CCC(=O)N2)C(=O)C=C` [TR-G040, N-acryloyl-N'-(2-((2-oxo-1,2,3,4-tetrahydroquinolin-6-yl)oxy)acetyl)acrylohydrazide], for which the “Cell Proliferation (%)” value is listed as 98% in test [1] and 91% in test [2]. Further, the inhibition at 10 µM in test [1] was determined as 2%; in test [2], 9%.

As for `Cc1ccc(COc2ccc3c(c2)CCC(=O)N3)cc1` [TR-G041, 6-((4-methylbenzyl)oxy)-3,4-dihydroquinolin-2(1H)-one], in test [1], the activity at 10 µM was 74% and testing at 10 µM gave an inhibition of 26%. In addition, in test [2], the activity at 10 µM is 70% and testing at 10 µM gave an inhibition of 30%.

Regarding `O=C1CCc2cc(OS(=O)(=O)c3cccc(Cl)c3Cl)ccc2N1` [TR-G042, 2-oxo-1,2,3,4-tetrahydroquinolin-6-yl 2,3-dichlorobenzenesulfonate], in test [1], the “Cell Proliferation (%)” value is on record as 83% and 10 µM produced 17% inhibition. In addition, in test [2], the “Cell Proliferation (%)” value is reported as 70% and 10 µM produced 31% inhibition.

Take `CN1CCN(c2ccc(NC(=O)COc3ccc4c(c3)CCC(=O)N4)cc2)CC1` [TR-G043, N-(4-(4-methylpiperazin-1-yl)phenyl)-2-((2-oxo-1,2,3,4-tetrahydroquinolin-6-yl)oxy)acetamide]: in test [1], the activity at 10 µM worked out at 74% and the inhibition at 10 µM turned out to be 26%. In test [2], this molecule gave an activity at 10 µM of 73% and an inhibition at 10 µM of 27%.

With `CN1C(=O)/C(=N\NC(=O)COc2ccc3c(c2)CCC(=O)N3)c2cc(F)ccc21` [TR-G047, (Z)-N'-(5fluoro-1-methyl-2-oxoindolin-3-ylidene)-2-((2-oxo-1,2,3,4-tetrahydroquinolin-6-yl)oxy)acetohydrazide], the activity at 10 µM in test [1] turned out to be 62%; in test [2] it was 77%. Besides, the figures for the inhibition at 10 µM in test [1] and in test [2] were 38% and 23%, respectively.

In test [1], `O=C1CCc2cc(OS(=O)(=O)c3ccc(Br)cc3)ccc2N1` [TR-G048, 2-oxo-1,2,3,4-tetrahydroquinolin-6-yl 4-bromobenzenesulfonate] yielded an activity at 10 µM of 61% and an inhibition at 10 µM of 39%. In test [2], this molecule showed an activity at 10 µM of 69% and an inhibition at 10 µM of 31%.

For the molecule `O=C1CCc2cc(OCCCN3C(=O)c4ccccc4C3=O)ccc2N1` [TR-G049, 2-(3-((2-oxo-1,2,3,4-tetrahydroquinolin-6-yl)oxy)propyl)isoindoline-1,3-dione], the “Cell Proliferation (%)” value in test [1] was 63%; in test [2], 76%. The inhibition at 10 µM in test [1] is 37%; in test [2] it was 24%.

In the case of `O=C(COc1ccc2c(c1)CCC(=O)N2)N/N=C1\C(=O)Nc2ccc(F)cc21` [TR-G050, (Z)-N'-(5-fluoro-2-oxoindolin-3-ylidene)-2-((2-oxo-1,2,3,4-tetrahydroquinolin-6-yl)oxy)acetohydrazide], the activity at 10 µM in test [1] was found to be 54%; in test [2], 69%. For the same molecule, the figures for the inhibition at 10 µM in test [1] and in test [2] were 46% and 31%, respectively.

In test [1], `O=C1CCc2cc(OCC3CC(c4ccc(F)cc4)=NO3)ccc2N1` (stereo not drawn) [TR-G051, 6-((3-(4-fluorophenyl)-4,5-dihydroisoxazol-5-yl)methoxy)-3,4-dihydroquinolin-2(1H)-one] showed an activity at 10 µM of 67% and an inhibition at 10 µM of 33%. Moreover, in test [2], the activity at 10 µM turned out to be 79% and the inhibition at 10 µM amounted to 21%.

As to `CC(C)CCn1cc(COc2ccc3c(c2)CCC(=O)N3)nn1` [TR-G052, 6-((1-isopentyl-1H-1,2,3-triazol-4-yl)methoxy)-3,4-dihydroquinolin-2(1H)-one], in test [1], the activity at 10 µM is 52% and the inhibition at 10 µM came to 48%. In test [2], this molecule displayed an activity at 10 µM of 85% and an inhibition at 10 µM of 15%.

In test [1], `Cc1cn(-c2cc(NC(=O)COc3ccc4c(c3)CCC(=O)N4)cc(C(F)(F)F)c2)cn1` [TR-G054, N-(3-(4-methyl-1H-imidazol-1-yl)-5-(trifluoromethyl)phenyl)-2-((2-oxo-1,2,3,4-tetrahydroquinolin-6-yl)oxy)acetamide] displayed an activity at 10 µM of 79% and an inhibition at 10 µM of 21%. In test [2], this molecule registered an activity at 10 µM of 84% and an inhibition at 10 µM of 16%.

In test [1], `O=C(COc1ccc2c(c1)CCC(=O)N2)N/N=C/c1ccc([N+](=O)[O-])cc1` [TR-G055, (E)-N'-(4-nitrobenzylidene)-2-((2-oxo-1,2,3,4-tetrahydroquinolin-6-yl)oxy)acetohydrazide] yielded an activity at 10 µM of 92% and an inhibition at 10 µM of 8%. For the same molecule, in test [2], the activity at 10 µM turned out to be 85% and 10 µM produced 15% inhibition.

On to `O=C(COc1ccc2c(c1)CCC(=O)N2)N/N=C1\C(=O)Nc2ccc([N+](=O)[O-])cc21` [TR-G056, (Z)-N'-(5-nitro-2-oxoindolin-3-ylidene)-2-((2-oxo-1,2,3,4-tetrahydroquinolin-6-yl)oxy)acetohydrazide], for which, in test [1], the activity at 10 µM was 83% and at 10 µM the inhibition was 17%. In test [2], this molecule came in with an activity at 10 µM of 99% and an inhibition at 10 µM of 1%.

Turning to `CS(=O)(=O)Oc1ccc2c(c1)CCC(=O)N2` [TR-G057, 2-oxo-1,2,3,4-tetrahydroquinolin-6-yl methanesulfonate], in test [1], the activity at 10 µM turned out to be 99% and at 10 µM the inhibition was 1%. For the same molecule, in test [2], the activity at 10 µM is 85% and at 10 µM the inhibition was 15%.

For the molecule `CC(=O)OCC1OC(n2cc(COc3ccc4c(c3)CCC(=O)N4)nn2)[C@H](OC(C)=O)[C@@H]1OC(C)=O` (stereo partly drawn) [TR-G058, (3R,4R)-2-(acetoxymethyl)-5-(4-(((2-oxo-1,2,3,4-tetrahydroquinolin-6-yl)oxy)methyl)-1H-1,2,3-triazol-1-yl)tetrahydrofuran-3,4-diyl diacetate], in test [1], the activity at 10 µM came out at 100% and the inhibition at 10 µM was determined as 0%. In test [2], this molecule came in with an activity at 10 µM of 73% and an inhibition at 10 µM of 27%.

Take `O=C(COc1ccc2c(c1)CCC(=O)N2)N/N=C/c1ccccn1` [TR-G059, (E)-2-((2-oxo-1,2,3,4-tetrahydroquinolin-6-yl)oxy)-N'-(pyridin-2-ylmethylene)acetohydrazide]: the values for the activity at 10 µM in test [1] and in test [2] were 81% and 79%, respectively. The figures for the inhibition at 10 µM in test [1] and in test [2] were 20% and 21%, respectively.
